Measured values: ChEMBL document CHEMBL5108012, “Discovery of 2,5-diphenyl-1,3,4-thiadiazole derivatives as HDAC inhibitors with DNA binding affinity” (Eur J Med Chem, 2022)
Calls of active or inactive are those of the source. The rule behind the calls is not given here.

Key:
[1] = target: T1, Protein deacetylase HDAC6 (Homo sapiens, UniProt Q9UBN7); test: Inhibition of HDAC6 in human HeLa cell nuclear extract using Boc-Lys(Ac)-AMC or Boc-Lys(triflouroacetyl)-AMC as substrate incubated for 30 mins and measured by fluorescence assay; format: cell-free
T1 sequence (Q9UBN7 whole entry): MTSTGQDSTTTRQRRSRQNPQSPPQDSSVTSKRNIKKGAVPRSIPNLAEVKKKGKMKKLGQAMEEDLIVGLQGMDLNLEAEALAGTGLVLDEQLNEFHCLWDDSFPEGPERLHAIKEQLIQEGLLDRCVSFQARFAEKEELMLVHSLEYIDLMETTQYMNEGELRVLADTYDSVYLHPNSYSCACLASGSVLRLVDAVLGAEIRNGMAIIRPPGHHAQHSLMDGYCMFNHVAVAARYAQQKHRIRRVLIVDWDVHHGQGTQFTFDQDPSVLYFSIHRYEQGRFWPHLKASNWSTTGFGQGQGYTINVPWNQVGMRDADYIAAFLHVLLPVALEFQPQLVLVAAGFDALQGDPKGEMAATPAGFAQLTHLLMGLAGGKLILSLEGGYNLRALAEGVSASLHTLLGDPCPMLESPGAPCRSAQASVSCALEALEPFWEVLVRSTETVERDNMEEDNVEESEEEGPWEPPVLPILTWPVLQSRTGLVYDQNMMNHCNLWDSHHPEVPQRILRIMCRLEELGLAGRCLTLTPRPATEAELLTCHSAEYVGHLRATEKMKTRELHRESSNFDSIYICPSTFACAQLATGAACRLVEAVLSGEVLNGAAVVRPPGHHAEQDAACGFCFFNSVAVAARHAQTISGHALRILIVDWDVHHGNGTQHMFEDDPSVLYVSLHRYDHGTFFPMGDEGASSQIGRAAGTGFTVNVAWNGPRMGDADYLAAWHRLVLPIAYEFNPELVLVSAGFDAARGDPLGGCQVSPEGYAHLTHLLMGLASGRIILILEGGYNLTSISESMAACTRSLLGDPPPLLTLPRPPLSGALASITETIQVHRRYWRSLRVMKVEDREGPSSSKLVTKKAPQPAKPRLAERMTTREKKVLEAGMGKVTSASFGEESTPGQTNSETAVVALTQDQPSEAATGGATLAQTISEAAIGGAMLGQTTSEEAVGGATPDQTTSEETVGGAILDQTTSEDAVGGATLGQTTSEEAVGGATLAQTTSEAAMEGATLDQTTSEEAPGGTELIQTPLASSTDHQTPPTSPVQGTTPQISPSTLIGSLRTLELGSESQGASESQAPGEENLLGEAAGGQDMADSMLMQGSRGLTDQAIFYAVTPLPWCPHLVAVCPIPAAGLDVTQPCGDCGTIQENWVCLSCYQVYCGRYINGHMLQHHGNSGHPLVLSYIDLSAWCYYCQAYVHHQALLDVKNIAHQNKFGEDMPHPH

Calf thymus DNA = test: Binding affinity to calf thymus DNA at 50 uM incubated for 30 mins and measured by UV-vis absorption spectroscopy; format: nucleic-acid assay; details: Bos taurus
DNA = test: Binding affinity to pBR322 DNA (unknown origin) at 10 to 50 uM after 30 mins by Agarose gel electrophoresis; format: nucleic-acid assay; details: dose 10-50 µM
HCT-116 [2] = test: Downregulation of SSRP-1 expression in human HCT-116 cells at 0.17 to 1.5 uM measured after 24 hrs by Western blot analysis; format: functional, cell-based; details: dose 0.17-1.5 µM
HCT-116 [3] = test: Antiproliferative activity against human HCT-116 cells after 48 hrs by CCK-8 assay; format: functional, cell-based; details: HCT-116, 48 h
HEL = test: Antiproliferative activity against human HEL cells after 48 hrs by CCK-8 assay; format: functional, cell-based
HCT-116 [4] = test: Induction of apoptosis in human HCT-116 cells assessed as late apoptotic cells at 1.5 uM incubated for 48 hrs by PI and annexin V-FITC staining based flow cytometry (reference value: 3.4%); format: functional
HCT-116 [5] = test: Induction of apoptosis in human HCT-116 cells assessed as increase in cleaved caspase-3 expression at 0.17 to 1.5 uM incubated for 48 hrs by Western blot analysis; format: functional, cell-based; details: dose 0.17-1.5 µM
[6] = target: Histone deacetylase (Homo sapiens) (UniProt Q13547+O15379+Q9UBN7+Q92769+Q9UQL6+Q8WUI4+Q9BY41+Q96DB2+P56524+Q9UKV0+Q969S8); test: Inhibition of HDAC in human HCT-116 cells assessed as increase in acetylated alpha-tubulin expression expression at 0.17 to 1.5 uM incubated for 48 hrs by Western blot analysis; format: cell-based; details: dose 0.17-1.5 µM
MC38 = test: Inhibition of HDAC in mouse MC-38 cells assessed as increase in acetylated alpha-tubulin expression expression at 0.17 to 1.5 uM incubated for 48 hrs by Western blot analysis; format: cell-based; details: dose 0.17-1.5 µM
MC-38 [7] = test: Antitumor activity against mouse MC38 cells xenografted in C57BL/6 mouse assessed as tumor growth inhibition at 100 mg/kg, ip administered every 2 days for 16 consecutive days; format: functional; details: MC-38, 384 h, time 16 day, read-out: TGI
MC-38 [8] = test: Antitumor activity against mouse MC38 cells xenografted in C57BL/6 mouse assessed as necrosis in tumor at 50 to 100 mg/kg, ip administered every 2 days for 16 consecutive days measured by H and E staining method; format: functional, organism-based; details: dose 50-100 mg/kg, time 16.0 day

What does the source list for `O=C(CCCCCOc1cccc(-c2nnc(-c3ccccc3)s2)c1)NO`?
IC50 [1]: 20 nM; Activity (Calf thymus DNA): Active; Activity (DNA): Active; Activity (HCT-116 [2]): Active; IC50 (HCT-116 [3]): 470 nM; IC50 (HEL): 280 nM; Activity (HCT-116 [4]): 38.5%; Activity (HCT-116 [5]): Active; inhibition [6]: Active; inhibition (MC38): Active; inhibition in vivo at 100 mg/kg (MC-38 [7]): 85.2%; Activity (MC-38 [8]): Active
